# Test results: patent USRE35801E, “Prophylactic and therapeutic composition for circulatory disorders and method of treatment” (priority 1985, dated 1998)
# Structures can show the parent of a compound that is named as a salt.
# System: lipid peroxidation (brain homogenate)
# Assay: Inhibitory action of lipid peroxidation in brain homogenate (TBA value)
# Type: biochemical
# Conditions: 500 μM; rat brain homogenate, 37° C., 30 minutes
# Protocol: (1) Inhibitory action of lipid peroxidation (a) Preparation of brain homogenate By use of Wister-strain male rat, brain homogenate was prepared following the procedure as described below. […] Next, a brain perfusion was conducted through the tube with ice-cooled 50 mM phosphate-buffered physiological saline (pH 7.4) hereinafter referred to as "PBS"), and the whole brain was extirpated. After removal of cerebellum, the wet weight of cerebrum was measured and, with addition of 9-fold amount of PBS, it was broken by a Teflon homogenizer in ice-water to be homogenized. After the brain homogenate was subjected to centrifugation at 4° C. at 2200 rpm for 10 minutes, 0.3 ml of the supernatant was apportioned into a light-shielding test tube equipped with a ground stopper, to provide a brain homogenate for evaluation of medicine. (b) Evaluation of test medicine To the brain homogenate produced in (a), 0.6 ml of PBS and 10 μl of ethanolic solution of a test medicine were added (to a final concentration of 500 μM or a concentration at a common ratio of 3 between 0.3 and 100 μm), and the mixture was heated in a warm bath at 37° C. for 30 minutes. […] Also, the same operation was performed by addition of 10 μl of ethanol (blank) in place of 10 μl ethanolic solution of the test medicine for measurement of blank. […] After shaking for about 30 seconds, the mixture was subjected to centrifugation at 3000 rpm for 10 minutes, and the supernatant was provided as a sample for measurement of peroxidized lipid.
row,SMILES,Inhibitory percentage at 500 μM
1,"CC1=NN(C)C(=O)C1 [Compound 38, 1,3-Dimethyl-2-pyrazolin-5-one]",45.5%
2,"CC1=NN(c2ccccc2)C(=O)C1CCO (stereo not drawn) [Compound 32, 4-(2-Hydroxyethyl)-3-methyl-1-phenyl-2-pyrazolin-5-one]",62.7%
3,"CC1=NN(CCO)C(=O)C1 [Compound 39, 1-(2-Hydroxyethyl)-3-methyl-2-pyrazolin-5-one]",39.2%
4,CC1=NN(c2ccc(C(=O)O)cc2)C(=O)C1 [Compound 21],34.0%

# Same assay, conditions: inhibition of lipid peroxidation, rat brain homogenate, 37° C., 30 minutes
row,SMILES,IC50
1,"O=C1CC=NN1c1ccccc1 [Compound 51, 1-Phenyl-2-pyrazolin-5-one]",20.1 µM
2,CC1=NN(c2ccc(O)cc2)C(=O)C1 [Compound 46],23.9 µM
3,COc1ccccc1N1N=C(C)CC1=O [Compound 9],2130 µM
4,CC1=NN(Cc2ccccc2)C(=O)C1 [Compound 41],32.9 µM
5,CC1=NN(c2ccccc2)C(=O)C1Sc1ccccc1 (stereo not drawn) [Compound 34],146 µM
6,CC1=NN(c2ccccc2C)C(=O)C1 [Compound 2],392 µM
7,CC1=NN(c2ccccc2)C(=O)C1Oc1ccccc1 (stereo not drawn) [Compound 33],16.2 µM
8,O=C1CC(c2ccccc2)=NN1c1ccc(Cl)cc1 [Compound 29],1.2 µM
9,"CC1=NN(c2ccc(N)cc2)C(=O)C1 [Compound 50, 1-(4-aminophenyl)-3-methyl-2-pyrazolin-5-one dihydrochloride]",32.1 µM
10,CC1=NN(c2ccccc2Cl)C(=O)C1 [Compound 14],97.8 µM
11,"CC1=NN(c2ccccc2O)C(=O)C1 [Compound 44, 1-(2-hydroxyphenyl)-3-methyl-2-pyrazolin-5-one]",35.5 µM
12,"O=C1CC(c2ccccc2)=NN1c1ccccc1 [Compound 26, 1,3-Diphenyl-2-pyrazolin-5-one]",0.08 µM
13,CN1N=C(c2ccccc2)CC1=O [Compound 43],27.2 µM
14,CC1=NN(c2cccc(O)c2)C(=O)C1 [Compound 45],21.2 µM
15,COc1ccc(N2N=C(C)CC2=O)cc1OC [Compound 12],23 µM
16,"CCOC(=O)CC1=NN(c2ccccc2)C(=O)C1 [Compound 36, 3-(Ethoxycarbonylmethyl)-1-phenyl-2-pyrazolin-5-one]",32.2 µM
17,"CC1=NN(c2ccc(CO)cc2)C(=O)C1 [Compound 49, 1-(4-hydroxymethylphenyl)-3-methyl-2-pyrazolin-5-one]",51.8 µM

# Now from value to compound:
row,IC50,SMILES
1,15.1 µM,"CCC1=NN(c2ccccc2)C(=O)C1 [Compound 24, 3-Ethyl-1-phenyl-2-pyrazolin-5-one]"
2,12.1 µM,CC1=NN(c2ccc(F)cc2)C(=O)C1 [Compound 18]
3,8 µM,CC1=NN(c2cccc(C)c2)C(=O)C1 [Compound 3]
4,7.1 µM,COc1cccc(N2N=C(C)CC2=O)c1 [Compound 10]
5,6 µM,CC1=NN(c2ccc(C)c(C)c2)C(=O)C1 [Compound 5]
6,5.2 µM,CCOC(=O)c1ccc(N2N=C(C)CC2=O)cc1 [Compound 22]
7,5.1 µM,CC1=NN(c2ccc([N+](=O)[O-])cc2)C(=O)C1 [Compound 23]
8,5.1 µM,CSc1cccc(N2N=C(C)CC2=O)c1 [Compound 20]
9,4.9 µM,CC1=NN(c2cccc3ccccc23)C(=O)C1 [Compound 42]
10,4.1 µM,CC1=NN(c2ccc(C)c(Cl)c2)C(=O)C1 [Compound 19]
11,3.9 µM,CC1=NN(c2cccc(C(F)(F)F)c2)C(=O)C1 [Compound 8]
12,3.4 µM,CC1=NN(c2cccc(Cl)c2)C(=O)C1 [Compound 15]
13,3 µM,COc1ccc(N2N=C(c3ccccc3)CC2=O)cc1 [Compound 28]
14,2.7 µM,O=C1CC(c2ccccc2)=NN1c1ccc(O)cc1 [Compound 48]
15,2.2 µM,CCCCc1ccc(N2N=C(C)CC2=O)cc1 [Compound 7]
16,1.6 µM,CC1=NN(c2ccc(Cl)c(Cl)c2)C(=O)C1 [Compound 17]
17,1.3 µM,CC1=NN(c2ccc(O)c(O)c2)C(=O)C1 [Compound 47]
18,1.2 µM,Cc1ccc(N2N=C(c3ccccc3)CC2=O)cc1 [Compound 27]
